Assay results from PubChem BioAssay AID179 (DTP/NCI, 2004).
“And” between values parts separate entries of the source, which are not always exact repeats. Equal values may be shown once. The source made the active and inactive calls.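 How the source made its calls: active means compounds giving half or more protection of infected cells from virus-caused growth loss, again on retest; inactive means the rest.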 Where a SMILES comes first, the peptide text is derived from it.

Test system: CEM cells HIV-1 protection, formazan growth assay
Assay: NCI AIDS Antiviral Assay
Settings: for IC50: measured here: growth of uninfected CEM cells
In short: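 Category rules: moderately active means at least 50% protection on retest, and confirmed active means 100% protection reproducibly. The underlying data came from a formazan growth assay in HIV-1-infected CEM cells.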

SMILES | EC50 | IC50 | outcome
CC(/C=C/c1ccccc1)=N/NS(=O)(=O)c1ccc(N)cc1 | > 115 µM | > 115 µM | 
Cn1c(=O)c2nc(-c3cccnc3)cnc2n(C)c1=O | > 200 µM | > 200 µM | 
CC1=N/C(=C\c2ccc(F)cc2)C(=O)O1 | > 25.1 µM | > 25.1 µM | 
Cc1ccc(-c2cc(O)c3nc4ccccc4n3c2)cc1 | > 200 µM | > 200 µM | 
O=C1CN(c2cccc(C(F)(F)F)c2)C(=O)CN1NCNN1CC(=O)N(c2cccc(C(F)(F)F)c2)CC1=O | > 200 µM | > 200 µM | 
COC1CC[C@@H]2CC(=O)CC[C@]2(C)C1=O (stereo partly drawn) |  |  | inactive
COC(=O)C1C2c3ccccc3-c3ccccc3C2(OC(C)=O)[C@@]1(Cl)C(=O)OC (stereo partly drawn) | > 43.7 µM | 6.61 µM | 
CC1CC/C(=C\c2ccc(Cl)cc2)C2OC(N)=C(C#N)C(c3ccc(Cl)cc3)=C12 (stereo not drawn) |  |  | inactive
C1=CC2CC1C1C(=C3Sc4ccccc4S3)c3nccnc3C(=C3Sc4ccccc4S3)C21 (stereo not drawn) | > 14.5 µM | > 14.5 µM | 
CCOC(=O)/C(=C\c1ccc(F)cc1)P(=O)(OCC)OCC | > 759 µM | 15.1 µM | 
Cc1ccc(S(=O)(=O)n2ccc(-c3ccc4ccn(S(=O)(=O)c5ccc(C)cc5)c4c3)c2)cc1 | > 200 µM | 87.1 µM | 
C[C@@]1(OC(=O)c2cc([N+](=O)[O-])cc([N+](=O)[O-])c2)C[C@@H]2CCCC[C@@H]21 |  |  | inactive
N#C/C(=C\c1ccc(O)c(O)c1)C(=O)NCCCCCCNC(=O)/C(C#N)=C/c1ccc(O)c(O)c1 | > 200 µM | > 200 µM | 
CSc1nc(SC)c2[nH]cnc2n1 | > 200 µM | 145 µM | 
CC(C)Oc1c(O)c2c3c(oc(=O)n3C=CC2c2ccccc2)c1OC(C)C (stereo not drawn) | > 200 µM | 21.9 µM | 
O=c1c(Sc2c(SCSc3cnc4ccccc4c3Sc3c[nH]c4ccccc4c3=O)cnc3ccccc23)c[nH]c2ccccc12 | > 100 µM | > 100 µM | 
Cc1nc(C)c(N2CCNCC2)c(=O)[nH]1 |  |  | inactive
COc1ccc(N2C(=O)C(N3C(=O)C=CC3=O)C2C=O)cc1 (stereo not drawn) | > 166 µM | > 166 µM | 
Cc1cc2c(cc1C)Nc1oc3ccc4ccccc4c3c(=O)c1C=N2 | > 200 µM | > 200 µM | 
CN1C(=N\S(=O)(=O)c2ccc(Cl)cc2)/C(=N/N=P(c2ccccc2)(c2ccccc2)c2ccccc2)c2ccccc21 | > 2.34 µM | > 2.34 µM | 
CC1CN2C(=O)[C@@H](OC(=O)Nc3cc([N+](=O)[O-])cc([N+](=O)[O-])c3)[C@H]3CC[C@@H]1[C@]32C (stereo partly drawn) | > 100 µM | 55 µM | 
CC(C)=CCC[C@@H](C)C1[C@@H](OC2OC(CO)C(O)C(O)C2O)CC2(C)[C@@H]3CC(=O)C4C(C)(C)[C@@H](OC5OC(CO)C(O)C(O)C5O)CC[C@@]45C[C@@]35CC[C@]12C (stereo partly drawn) | > 33.1 µM | 31.6 µM | 

SMILES | EC50 | IC50 | outcome
COc1ccc(-n2c(C)nc3ccc(NC4OCC(O)C(O)C4O)cc3c2=O)cc1 (stereo not drawn) | > 200 µM | 69.2 µM and 45.7 µM | 
CO/N=C1\CC(n2cc(C)c(=O)[nH]c2=O)OC1CO (stereo not drawn) | > 200 µM | > 200 µM | 
C/C(=N\N=C(\N)OB(F)F)c1ccccn1 | > 200 µM | 141 µM | 
COc1ccc(-c2cc(-c3ccccc3)nc3c2CC(=O)Nc2ccccc2-3)cc1OC | > 100 µM | 15.5 µM | 
Cc1cccc(C(C)(C)C)c1NC(=O)/C(Cc1nc2ccc([N+](=O)[O-])cc2[nH]c1=O)=N/NC(=O)C[N+](C)(C)C | > 437 µM | 60.3 µM | 
CON(C)c1nc(N(C)OC)nc(N(C)OC)n1 | > 200 µM | > 200 µM | 
O=[N+]([O-])c1ccc2c(c1)Sc1ccccc1N2 | > 200 µM | 60.3 µM | 
O=[N+]([O-])c1cccc[c]1[Sb](=[O])([OH])[c]1ccccc1[N+](=O)[O-] | > 200 µM | 25.1 µM | 
CN(C)c1ccc(/C=C(\NC(=O)c2ccccc2)c2nn(C)c(=O)o2)cc1 | > 100 µM | > 100 µM | 
c1ccc(P2CCc3[nH]c4ccccc4c3C2)cc1 (stereo not drawn) | > 38 µM | > 38 µM | 
CCN(CC)c1c(C(=O)/C=C/c2ccc(OC)cc2)c(-c2ccccc2)nn(C)c1=O | > 9.12 µM | > 9.12 µM | 
O=C(c1ccc(Cl)cc1)N(C(=S)N1CCN(c2ccccn2)CC1)C1CCCCC1 | > 11.7 µM | 8.51 µM | 
Cc1cn(C2CC(F)C(COC(=O)CCCCCCCCCCCBr)O2)c(=O)[nH]c1=O (stereo not drawn) | 0.024 µM | 28.8 µM | 
O=C(c1ccccc1)c1ccc(OCCOc2ccc(Nc3ccccc3)cc2)cc1 | > 6.61 µM | > 6.61 µM | 
Brc1ccc2[nH]c3nc(N/N=C/c4cccs4)nnc3c2c1 | > 200 µM | > 200 µM | 
NC1=NN(c2ccccc2)C(=O)C1C(=O)C(=O)NC1C2CC3CC(C2)CC1C3 (stereo not drawn) | > 13.8 µM | > 13.8 µM | 
C(=C\c1ccc2ccccc2n1)/c1cccnc1 | > 214 µM | 12 µM | 
N#CC1=C(C#N)SCCCS1 | > 14.8 µM | > 14.8 µM | 
Cc1cccc2c(O)cc(=O)oc12 |  |  | inactive
CCCCC1(C)C=C/C(=C2/C(=O)O/C(=C\C(=O)O)C2=O)O1 (stereo not drawn) | > 851 µM | > 851 µM | 
CCSC(=O)N1c2ccc(OC)cc2C=CC1C#N (stereo not drawn) | > 0.692 µM | 0.0407 µM | 
CC1=C/C(=N\NC(N)=S)C(C(O)(C(F)(F)F)C(F)(F)F)C(C)(C)C1 (stereo not drawn) | > 200 µM | 89.1 µM | 

SMILES | EC50 | IC50 | outcome
CCOC(=O)/C(C#N)=C/c1ccc([N+](=O)[O-])cc1 | > 21.4 µM | > 21.4 µM | 
CCOC(=O)C1=C(NC)OCC1=O |  |  | inactive
CCCCCCCCCCCCCCCCOC1N(C2CC(N=[N+]=[N-])C(CO)O2)C(=O)NC(=O)[C@]1(C)Br (stereo partly drawn) | > 200 µM | 11 µM | 
O=C1C(O)=C(c2ccc(Br)cc2)C(=O)C(O)=C1c1ccc(Br)cc1 | > 58.9 µM | 22.4 µM | 
CCC(C)N1CN(c2ccccc2)C2(CCN(CC3COc4ccccc4O3)CC2)C1=O (stereo not drawn) | > 200 µM | 29.5 µM | 
Nc1[nH]c(=O)[nH]c(=O)c1Cc1cccc(Cl)c1 | > 200 µM | 39.8 µM | 
COc1cccc(/C=N/[N+](C)(C)C)c1O | > 200 µM | > 200 µM | 
O=c1[nH]c(=O)n(CCOc2ccc(Cl)cc2)cc1Nc1ccccc1 | > 200 µM | 135 µM | 
CC1=C/N\C(C#N)=C(C#N)/N=C/C(C)=C\N\C(C#N)=C(C#N)/N=C\1 | > 200 µM | > 200 µM | 
COc1cc2c(cn1)[nH]c1ccccc12 |  |  | inactive
CN1CC(=O)Nc2c(ncn2C2OC(CO)C(O)C2O)C1=O (stereo not drawn) | > 229 µM | > 229 µM | 
CCOC(=O)c1ccc(CS(=O)(=O)c2ccccc2)c([N+](=O)[O-])c1 | > 102 µM | > 102 µM | 
CSC1=N/C(=C\c2ccc(C)cc2)C(=O)N1CN1CCOCC1 | > 200 µM | 34.7 µM | 
CCOC1OC(CO)C(O)CC1n1ccc(=O)[nH]c1=O (stereo not drawn) | > 200 µM | 97.7 µM | 
COc1ccc2c(c1)c1c3c(ccc4ncn2c43)N(CCN(C)C)CCN=1 | > 20 µM | 0.324 µM | 
c1ccc2c(c1)oc1ccc3nsnc3c12 | > 15.8 µM | > 15.8 µM | 
Cn1c2ccc([N+](=O)[O-])cc2c(=O)c2c(O)cc(O)cc21 | > 200 µM | 19.1 µM | 
c1ccc2sc(CN(Cc3nc4ccccc4s3)Cc3nc4ccccc4s3)nc2c1 | > 40.7 µM | > 40.7 µM | 
CCOC(Cc1c(N)[nH]c(=S)[nH]c1=O)OCC | > 200 µM | > 200 µM | 
O=[N+]([O-])c1ccc(SSc2ccc([N+](=O)[O-])cn2)nc1 | > 200 µM | 9.12 µM | 
COC1(OC)c2no[n+]([O-])c2CCC1O (stereo not drawn) | > 200 µM | > 200 µM | 
CSc1c(C#N)c(N)n(-c2ccc(C)cc2)c(=O)c1C#N | > 83.2 µM | 74.1 µM | 

SMILES | EC50 | IC50 | outcome
NC(=O)NC(=O)c1cccs1 | > 200 µM | > 200 µM | 
NC(N)=Nc1ccc(-c2ccc(N=C(N)N)cc2)cc1 | > 200 µM | 25.1 µM | 
O=C1c2ccccc2-c2nnc3c(c21)Cc1ccccc1C3 | > 200 µM | > 200 µM | 
O=C(NNc1nc(-c2ccccc2)cs1)C(F)(F)F | > 200 µM | 44.7 µM | 
O=C1CCNC/C1=C\c1ccccc1 | > 6920 µM | 19.1 µM | 
CC(NC(=O)CNC(=O)C(N)CO)C(=O)NC(CCC(=O)O)C(=O)NC(CCC(=O)O)C(=O)NC(CO)C(=O)NC(CCCCN)C(=O)NC(CCC(=O)O)C(=O)NC(CCC(N)=O)C(=O)NC(CO)C(=O)N1CCCC1C(=O)NC(CC(N)=O)C(=O)NC(C)C(=O)NC(Cc1cnc[nH]1)C(=O)NC(CO)C(=O)O (stereo not drawn) (H-SGAEESKEQSPNAHS-OH; configuration not given here) | > 100 µM | > 100 µM | 
CCOC(=O)c1cc(-c2ccccc2)c(OC)c(=O)nc1-c1ccccc1 | > 27.5 µM | > 27.5 µM | 
[O]=[W](=[O])([OH])[OH] |  |  | inactive
O=C(Nc1ccc(Cl)cc1)P(=O)(O)c1ccccc1 | > 200 µM | > 200 µM | 
O=C(Cn1c(-c2ccccc2)cc2ccccc21)N1CCOCC1 | > 200 µM | > 200 µM | 
O=C(Cc1ccccc1C(=O)O)c1ccccc1 | > 200 µM | > 200 µM | 
CC(=O)C=O |  |  | inactive
O=c1onc(Nc2ccccc2)n1-c1ccccc1 | > 200 µM | 129 µM | 
c1scc2c1COCCOCCOCCOCCOCCOCCOC2 | > 646 µM | > 646 µM | 
CCC(C)C(NC(=O)C(CCCN=C(N)N)NC(=O)C(CC(N)=O)NC(=O)C(Cc1cnc[nH]1)NC(=O)C(N)CC(C)C)C(=O)NC(C(=O)NC(CC(C)C)C(=O)NCC(=O)NC(CC(N)=O)C(=O)O)C(C)CC (stereo not drawn) (H-LHNRIILGN-OH; configuration not given here) | > 47.9 µM | > 47.9 µM | 
O=c1[nH][nH]c(=O)c2ncccc12 | > 200 µM | > 200 µM | 
Cc1ccc(N(C)S(=O)(=O)c2ccccc2)cc1 | > 145 µM | 67.6 µM | 
Oc1cccc2c(Cl)ccnc12 | > 20 µM | 1.58 µM | 
COc1ccc(C2=Nc3ccccc3SC(c3ccc(OC)cc3)C2)cc1 (stereo not drawn) | > 47.9 µM | 25.7 µM | 
O=c1oc2ccccc2c(O)c1C(c1ccc2ccccc2c1)c1c(O)c2ccccc2oc1=O | > 200 µM | 38.9 µM | 
